Test results from article PMC10165273, “Itch receptor MRGPRX4 interacts with the receptor activity–modifying proteins” (The Journal of Biological Chemistry, 2023).
Where two headings read alike, the source gives them in different places.

Target: T1, MRGPRX4 (Homo sapiens, UniProt Q96LA9)
T1 construct: expressed in transfected cells; host or cells: HEK293T
Experiment: IP1 accumulation HTRF assay, MRGPRX4;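 as to IP1 accumulation, dose-response (Figure 1a): 0% is unstimulated mock-transfected cells and 100% is fully stimulated MRGPRX4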
Format: cell-based
Settings: 2 h; for activation at 16 µM: log [agonist] (M) -4.79588; for activation at 3.2 µM: log [agonist] (M) -5.49485; for activation at 0.64 µM: log [agonist] (M) -6.19382; for activation at 0.128 µM: log [agonist] (M) -6.89279; for activation at 0.0256 µM: log [agonist] (M) -7.59176

[1] = SP-FLAG-Nluc-HT7-MRGX4_Tet-GFP10-1D4, read-out: normalized IP1 accumulation
[2] = SP-FLAG-Nluc-HT7-MRGX4_Tet-GFP10-1D4 no dox, read-out: normalized IP1 accumulation

T1 sequence (Q96LA9 whole entry): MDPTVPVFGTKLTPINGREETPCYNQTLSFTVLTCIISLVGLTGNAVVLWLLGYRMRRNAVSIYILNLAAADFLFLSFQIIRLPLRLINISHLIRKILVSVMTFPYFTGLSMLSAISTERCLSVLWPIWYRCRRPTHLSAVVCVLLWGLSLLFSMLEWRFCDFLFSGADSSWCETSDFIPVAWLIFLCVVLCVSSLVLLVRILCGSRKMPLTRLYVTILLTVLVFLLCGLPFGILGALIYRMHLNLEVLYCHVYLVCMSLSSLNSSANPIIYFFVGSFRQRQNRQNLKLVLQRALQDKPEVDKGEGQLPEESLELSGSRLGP

CC(C)[C@H]1CC[C@H](C(=O)N[C@H](Cc2ccccc2)C(=O)O)CC1 [Nateglinide] showed an activation at 100 µM (HA-MRGX4-1D4, log [agonist] (M) -4, read-out: normalized IP1 accumulation) of 84.6%, an activation at 20 µM (HA-MRGX4-1D4, log [agonist] (M) -4.69897, read-out: normalized IP1 accumulation) of 63.4% and an activation at 4 µM (HA-MRGX4-1D4, log [agonist] (M) -5.39794, read-out: normalized IP1 accumulation) of 30.8%. The activation at 0.8 µM (HA-MRGX4-1D4, log [agonist] (M) -6.09691, read-out: normalized IP1 accumulation) was 17.7%, the activation at […] (HA-MRGX4-1D4, log [agonist] (M) -6.79588, read-out: normalized IP1 accumulation) was 12.4% and the activation at 0.032 µM (HA-MRGX4-1D4, log [agonist] (M) -7.49485, read-out: normalized IP1 accumulation) was 12.5%. It also gave an activation at 100 µM (MRGPRX4: 0.25pg/cell, log [Nateglinide] (M) -4, Fig S1b, read-out: IP1 accumulation) of 76.9%, an activation at 20 µM (MRGPRX4: 0.25pg/cell, log [Nateglinide] (M) -4.69897, Fig S1b, read-out: IP1 accumulation) of 53.7% and an activation at 4 µM (MRGPRX4: 0.25pg/cell, log [Nateglinide] (M) -5.39794, Fig S1b, read-out: IP1 accumulation) of 21.2%. The activation at […] (MRGPRX4: 0.25pg/cell, log [Nateglinide] (M) -6.79588, Fig S1b, read-out: IP1 accumulation) was 3.43%, the activation at 0.032 µM (MRGPRX4: 0.25pg/cell, log [Nateglinide] (M) -7.49485, Fig S1b, read-out: IP1 accumulation) was 3.78% and the activation at 100 µM (MRGPRX4: 0.5pg/cell, log [Nateglinide] (M) -4, Fig S1b, read-out: IP1 accumulation) was 92.5%. The activation at 20 µM (MRGPRX4: 0.5pg/cell, log [Nateglinide] (M) -4.69897, Fig S1b, read-out: IP1 accumulation) was 65.9%, the activation at 4 µM (MRGPRX4: 0.5pg/cell, log [Nateglinide] (M) -5.39794, Fig S1b, read-out: IP1 accumulation) was 33% and the activation at 0.8 µM (MRGPRX4: 0.5pg/cell, log [Nateglinide] (M) -6.09691, Fig S1b, read-out: IP1 accumulation) was 11.8%. It also gave an activation at […] (MRGPRX4: 0.5pg/cell, log [Nateglinide] (M) -6.79588, Fig S1b, read-out: IP1 accumulation) of 6.22%, an activation at 0.032 µM (MRGPRX4: 0.5pg/cell, log [Nateglinide] (M) -7.49485, Fig S1b, read-out: IP1 accumulation) of 5.53% and an activation at 100 µM (MRGPRX4: 1pg/cell, log [Nateglinide] (M) -4, Fig S1b, read-out: IP1 accumulation) of 92.1%. For the same compound, the activation at 20 µM (MRGPRX4: 1pg/cell, log [Nateglinide] (M) -4.69897, Fig S1b, read-out: IP1 accumulation) was 75.4%, the activation at 4 µM (MRGPRX4: 1pg/cell, log [Nateglinide] (M) -5.39794, Fig S1b, read-out: IP1 accumulation) was 37.9% and the activation at 0.8 µM (MRGPRX4: 1pg/cell, log [Nateglinide] (M) -6.09691, Fig S1b, read-out: IP1 accumulation) was 17.7%. For the same compound, the activation at […] (MRGPRX4: 1pg/cell, log [Nateglinide] (M) -6.79588, Fig S1b, read-out: IP1 accumulation) was 11.7%, the activation at 0.032 µM (MRGPRX4: 1pg/cell, log [Nateglinide] (M) -7.49485, Fig S1b, read-out: IP1 accumulation) was 9.46% and the activation at 100 µM (MRGPRX4: 2pg/cell, log [Nateglinide] (M) -4, Fig S1b/c, read-out: IP1 accumulation) was 100%. It also gave an activation at 20 µM (MRGPRX4: 2pg/cell, log [Nateglinide] (M) -4.69897, Fig S1b/c, read-out: IP1 accumulation) of 88.5%, an activation at 4 µM (MRGPRX4: 2pg/cell, log [Nateglinide] (M) -5.39794, Fig S1b/c, read-out: IP1 accumulation) of 44.1% and an activation at 0.8 µM (MRGPRX4: 2pg/cell, log [Nateglinide] (M) -6.09691, Fig S1b/c, read-out: IP1 accumulation) of 21.4%. The activation at […] (MRGPRX4: 2pg/cell, log [Nateglinide] (M) -6.79588, Fig S1b/c, read-out: IP1 accumulation) was 13.8%, the activation at 0.032 µM (MRGPRX4: 2pg/cell, log [Nateglinide] (M) -7.49485, Fig S1b/c, read-out: IP1 accumulation) was 12.6% and the activation at 100 µM (MRGPRX4: […], log [Nateglinide] (M) -4, Fig S1b, read-out: IP1 accumulation) was 68.7%. For the same compound, the activation at 20 µM (MRGPRX4: […], log [Nateglinide] (M) -4.69897, Fig S1b, read-out: IP1 accumulation) was 45%, the activation at 4 µM (MRGPRX4: […], log [Nateglinide] (M) -5.39794, Fig S1b, read-out: IP1 accumulation) was 17.6% and the activation at 0.8 µM (MRGPRX4: […], log [Nateglinide] (M) -6.09691, Fig S1b, read-out: IP1 accumulation) was 5.45%. For the same compound, the activation at 0.032 µM (MRGPRX4: […], log [Nateglinide] (M) -7.49485, Fig S1b, read-out: IP1 accumulation) was 2.09%, the activation at 30 µM (MRGPRX4, nateglinide 30uM, Fig S1d) was 86.4% and the activation at 100 µM (MRGPRX4, nateglinide 100uM, Fig S1d, read-out: IP1 accumulation) was 100%. For the same compound, the activation at 100 µM (MRGPRX4 alone, log [Nateglinide] (M) -4, Fig S3a-c, read-out: IP1 accumulation) was 100%, the activation at 20 µM (MRGPRX4 alone, log [Nateglinide] (M) -4.69897, Fig S3a-c, read-out: IP1 accumulation) was 85.7% and the activation at 4 µM (MRGPRX4 alone, log [Nateglinide] (M) -5.39794, Fig S3a-c, read-out: IP1 accumulation) was 46.2%. It also gave an activation at 0.8 µM (MRGPRX4 alone, log [Nateglinide] (M) -6.09691, Fig S3a-c, read-out: IP1 accumulation) of 23%, an activation at […] (MRGPRX4 alone, log [Nateglinide] (M) -6.79588, Fig S3a-c, read-out: IP1 accumulation) of 17.8% and an activation at 0.032 µM (MRGPRX4 alone, log [Nateglinide] (M) -7.49485, Fig S3a-c, read-out: IP1 accumulation) of 17.4%. The activation at 30 µM (MRGX4 + Ng, 30uM, U73122 30uM, Fig S1e) was 21.3%, the activation at 30 µM (MRGX4 + Ng, 30uM, buffer, Fig S1e) was 84.5% and the activation at 100 µM (MRGX4 + Ng, 100uM, U73122 30uM, Fig S1e, read-out: IP1 accumulation) was 31%. The activation at 100 µM (MRGX4 + Ng, 100uM, buffer, Fig S1e, read-out: IP1 accumulation) was 100%, the activation at 80 µM (SP-FLAG-Nluc-HT7-MRGX4_Tet-GFP10-1D4, log [agonist] (M) -4.09691, read-out: normalized IP1 accumulation) was 49.1% and the activation at 16 µM [1] was 42%. For the same compound, the activation at 3.2 µM [1] was 23.5%, the activation at 0.64 µM [1] was 12.9% and the activation at 0.128 µM [1] was 10.3%. For the same compound, the activation at 0.0256 µM [1] was 9.54%, the activation at 16 µM [2] was 10.5% and the activation at 3.2 µM [2] was 7.88%. The activation at 0.64 µM [2] was 7.83%, the activation at 0.128 µM [2] was 7.62% and the activation at 0.0256 µM [2] was 8.15%. For the same compound, the activation at 100 µM (SP-Flag-MRGX4-1D4, log [agonist] (M) -4, read-out: normalized IP1 accumulation) was 85.6%, the activation at 20 µM (SP-Flag-MRGX4-1D4, log [agonist] (M) -4.69897, read-out: normalized IP1 accumulation) was 66.9% and the activation at 4 µM (SP-Flag-MRGX4-1D4, log [agonist] (M) -5.39794, read-out: normalized IP1 accumulation) was 28.3%. It also gave an activation at 0.8 µM (SP-Flag-MRGX4-1D4, log [agonist] (M) -6.09691, read-out: normalized IP1 accumulation) of 11.8%, an activation at […] (SP-Flag-MRGX4-1D4, log [agonist] (M) -6.79588, read-out: normalized IP1 accumulation) of 7.74% and an activation at 0.032 µM (SP-Flag-MRGX4-1D4, log [agonist] (M) -7.49485, read-out: normalized IP1 accumulation) of 8.22%. The activation at 100 µM (SP-Flag-MRGX4-GFP10-1D4, log [agonist] (M) -4, read-out: normalized IP1 accumulation) was 100%, the activation at 20 µM (SP-Flag-MRGX4-GFP10-1D4, log [agonist] (M) -4.69897, read-out: normalized IP1 accumulation) was 74% and the activation at 4 µM (SP-Flag-MRGX4-GFP10-1D4, log [agonist] (M) -5.39794, read-out: normalized IP1 accumulation) was 34.7%. The activation at 0.8 µM (SP-Flag-MRGX4-GFP10-1D4, log [agonist] (M) -6.09691, read-out: normalized IP1 accumulation) was 13.4%, the activation at […] (SP-Flag-MRGX4-GFP10-1D4, log [agonist] (M) -6.79588, read-out: normalized IP1 accumulation) was 8.46% and the activation at 0.032 µM (SP-Flag-MRGX4-GFP10-1D4, log [agonist] (M) -7.49485, read-out: normalized IP1 accumulation) was 8.07%. For the same compound, the activation at 3.7037 µM (log [agonist] (M) -5.43136, MRGX4-transfected, individual replicates, read-out: IP1 accumulation, dose-response (Figure 1a)) was 40%, the activation at 0.4115 µM (log [agonist] (M) -6.38561, MRGX4-transfected, individual replicates, read-out: IP1 accumulation, dose-response (Figure 1a)) was 19.1% and the activation at 100 µM (log [nateglinide] (M) -4, Dox 13 ng/mL, Supplementary Figure 5a, read-out: IP1 accumulation (normalized)) was 79.6%. The activation at 100 µM (log [nateglinide] (M) -4, Dox 13 ng/mL, Supplementary Figure 5b, read-out: IP1 accumulation (normalized)) was 13.6%, the activation at 100 µM (log [nateglinide] (M) -4, Dox 13 ng/mL, Supplementary Figure 5c, read-out: IP1 accumulation (normalized)) was 46.6% and the activation at 100 µM (log [nateglinide] (M) -4, Dox 40 ng/mL, Supplementary Figure 5a, read-out: IP1 accumulation (normalized)) was 82.2%.
